Source: ChEMBL document CHEMBL1944629, “Investigation of trypanothione reductase inhibitory activity by 1,3,4-thiadiazolium-2-aminide derivatives and molecular docking studies” (Bioorg Med Chem, 2012)
Calls of active or inactive are those of the source. The calls are words filed in the database; no cut-off is given here.

Key:
[1] = biological target: Trypanothione reductase (Leishmania amazonensis) (UniProt A5JV95); assay: Inhibition of trypanothione reductase in Leishmania amazonensis MHOM/BR/LTB0016 extracts assessed as NADPH consumption using trypanothione disulfide as substrate at 1 uM after 5 sec by spectrophotometer
Chain of Trypanothione reductase (Leishmania amazonensis) (A5JV95 as listed by the source): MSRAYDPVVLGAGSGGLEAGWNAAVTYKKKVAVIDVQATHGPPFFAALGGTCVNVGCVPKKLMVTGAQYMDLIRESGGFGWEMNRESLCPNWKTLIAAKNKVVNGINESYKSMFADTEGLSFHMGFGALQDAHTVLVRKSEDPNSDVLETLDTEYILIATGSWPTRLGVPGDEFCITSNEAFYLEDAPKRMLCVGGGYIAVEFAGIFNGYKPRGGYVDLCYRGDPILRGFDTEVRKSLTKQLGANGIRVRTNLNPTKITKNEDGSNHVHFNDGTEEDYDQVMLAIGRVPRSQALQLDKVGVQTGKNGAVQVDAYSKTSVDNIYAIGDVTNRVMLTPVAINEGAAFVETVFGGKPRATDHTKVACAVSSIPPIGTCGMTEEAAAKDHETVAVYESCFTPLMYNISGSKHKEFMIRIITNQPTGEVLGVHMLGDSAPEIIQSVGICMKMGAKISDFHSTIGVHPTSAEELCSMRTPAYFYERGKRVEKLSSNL

[2] = biological target: Trypanothione reductase (Leishmania infantum) (UniProt A4HSF7); assay: Inhibition of recombinant Leishmania infantum MHOM/MA67ITMAP263 trypanothione reductase assessed as inhibition of NADPH consumption using trypanothione disulfide as substrate at 1 uM after 60 secs by spectrophotometer
Chain of Trypanothione reductase (Leishmania infantum) (A4HSF7 as listed by the source): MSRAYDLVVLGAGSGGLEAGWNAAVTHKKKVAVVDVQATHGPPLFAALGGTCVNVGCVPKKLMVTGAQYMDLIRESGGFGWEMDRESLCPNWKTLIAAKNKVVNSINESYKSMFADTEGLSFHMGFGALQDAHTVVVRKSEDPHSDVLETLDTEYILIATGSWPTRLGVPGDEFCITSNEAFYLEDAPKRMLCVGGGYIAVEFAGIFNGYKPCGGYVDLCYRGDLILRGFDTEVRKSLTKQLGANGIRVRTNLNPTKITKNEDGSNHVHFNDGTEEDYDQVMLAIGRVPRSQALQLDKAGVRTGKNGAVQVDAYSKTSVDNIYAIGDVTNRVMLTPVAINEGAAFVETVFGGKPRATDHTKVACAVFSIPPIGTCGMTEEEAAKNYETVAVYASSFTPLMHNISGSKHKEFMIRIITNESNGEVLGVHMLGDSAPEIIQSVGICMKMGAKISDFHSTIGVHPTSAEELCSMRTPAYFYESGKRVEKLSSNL

[3] = biological target: Trypanothione reductase (Trypanosoma cruzi) (UniProt P28593); assay: Inhibition of recombinant Trypanosoma cruzi Y trypanothione reductase assessed as inhibition of NADPH consumption using trypanothione disulfide as substrate at 1 uM after 60 secs by spectrophotometer
Chain of Trypanothione reductase (Trypanosoma cruzi) (P28593 whole entry, looked up): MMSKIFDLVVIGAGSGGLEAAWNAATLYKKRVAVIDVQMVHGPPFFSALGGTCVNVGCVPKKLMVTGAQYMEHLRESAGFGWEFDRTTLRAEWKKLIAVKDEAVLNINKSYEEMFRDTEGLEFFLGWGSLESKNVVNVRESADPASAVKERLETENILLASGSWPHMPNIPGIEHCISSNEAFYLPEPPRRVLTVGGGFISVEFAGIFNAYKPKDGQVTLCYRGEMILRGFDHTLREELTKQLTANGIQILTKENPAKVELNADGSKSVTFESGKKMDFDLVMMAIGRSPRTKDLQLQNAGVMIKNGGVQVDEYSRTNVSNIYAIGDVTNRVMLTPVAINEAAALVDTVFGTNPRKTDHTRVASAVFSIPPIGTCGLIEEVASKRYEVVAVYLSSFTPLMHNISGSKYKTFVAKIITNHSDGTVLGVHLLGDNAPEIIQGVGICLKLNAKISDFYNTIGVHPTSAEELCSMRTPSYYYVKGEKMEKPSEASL

[4] = biological target: Trypanothione reductase (Leishmania infantum) (UniProt A4HSF7); assay: Inhibition of trypanothione reductase in promastigotes of Leishmania infantum MHOM/MA67ITMAP263 extracts assessed as NADPH consumption using trypanothione disulfide as substrate at 1 uM after 5 sec by spectrophotometer
[5] = biological target: Trypanothione reductase (Trypanosoma cruzi) (UniProt P28593); assay: Inhibition of trypanothione reductase epimastigotes of Trypanosoma cruzi Y extracts assessed as NADPH consumption using trypanothione disulfide as substrate at 1 uM after 5 sec by spectrophotometer
Leishmania braziliensis = assay: Inhibition of trypanothione reductase in promastigotes of Leishmania braziliensis MCAN/BR/98/R619 extracts assessed as NADPH consumption using trypanothione disulfide as substrate at 1 uM after 5 sec by spectrophotometer

Row | Structure (SMILES) | inhibition [1] | inhibition [2] | inhibition [3] | inhibition [4] [%] | inhibition [5] [%] | inhibition (Leishmania braziliensis) [%]
1 | COc1ccc(/C=C/c2sc(Nc3ccccc3)n[n+]2-c2ccccc2)cc1 | inactive | – | – | – | – | –
2 | C(=C\c1sc(Nc2ccccc2)n[n+]1-c1ccccc1)/c1ccccc1 | inactive | inactive | inactive | – | – | –
3 | COc1cccc(/C=C/c2sc(Nc3ccccc3)n[n+]2-c2ccccc2)c1 | inactive | – | – | – | – | –
4 | O=[N+]([O-])c1ccc(/C=C/c2sc(Nc3ccccc3)n[n+]2-c2ccccc2)cc1 | 76% | 76% | 69% | 70 | 83 | 69.5
